≈ marks a conversion by molar mass, not a printed value. Where two headings read alike, the source gives them in different places. Starred links: 1 amine or outer side, 2 acyl side, 3 side chain; linkers in the order of their positions; H or OH if unused. Positions of bridges follow the written chain, without caps; N, C: chain ends. Non-standard residues stand in square brackets, D forms with d. Residues, ends and D or L forms follow the SMILES beside them. *: point of attachment. C20 diacid = O=C(O)CCCCCCCCCCCCCCCCCCC(=O)*; C18 diacid = O=C(O)CCCCCCCCCCCCCCCCC(=O)*; γGlu = O=C(O)[C@H](CCC(=O)[*:2])N[*:1]; Orn = NCCC[C@H](N)C(=O)O; AEEA = NCCOCCOCC(=O)O
Legend:
[1] = Assay (IV) determination of solubility; format: physicochemical
Procedure, shortened: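 Stock ~500 nmol/ml in water; 1:1 with 100 mM buffer, pH 3.0–8.0 (glycylglycine ≤5.0, bistrispropane ≥6.0); 18 h RT; spin; HPLC quantitation of soluble polypeptide.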

[2] = Assay (III) ThT fibrillation assay for physical stability; format: physicochemical
Procedure, shortened: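 Freshly prepared formulations, pH-adjusted, with 1 μM ThT; four or eight replicates incubated at 37 °C under 960 rpm orbital shaking. Fluorescence (ex 444/em 485 nm) read every 20 min; […]. Peptide concentration measured by RP-HPLC before and after the run.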

[3] = bistrispropane buffer, pH 6, pH 6.0, read-out: Solubility pH 6.0
[4] = bistrispropane buffer, pH 6.5, pH 6.5, read-out: Solubility pH 6.5
[5] = bistrispropane buffer, pH 7, pH 7.0, 18 hours at room temperature, Table 3, read-out: Solubility pH 7.0
[6] = bistrispropane buffer, pH 7, pH 7.0, read-out: Solubility pH 7.0
[7] = bistrispropane buffer, pH 7.5, pH 7.5, read-out: Solubility pH 7.5
[8] = bistrispropane buffer, pH 8, pH 8.0, read-out: Solubility pH 8.0
[9] = glycylglycine buffer, pH 3, pH 3.0, read-out: Solubility pH 3.0
[10] = glycylglycine buffer, pH 4, pH 4.0, 18 hours at room temperature, Table 2, read-out: Solubility pH 4.0
[11] = glycylglycine buffer, pH 4, pH 4.0, read-out: Solubility pH 4.0
[12] = glycylglycine buffer, pH 5, pH 5.0, read-out: Solubility pH 5.0

In the case of `CC[C@H](C)[C@H](NC(=O)[C@@H]1CCCN1C(=O)CNC(=O)[C@H](Cc1ccccc1)NC(=O)[C@H](CC(N)=O)NC(=O)[C@H](CCC(N)=O)NC(=O)[C@H](CO)NC(=O)[C@H](CO)NC(=O)[C@H](Cc1c[nH]cn1)NC(=O)[C@H](Cc1c[nH]cn1)NC(=O)[C@H](CC(C)C)NC(=O)[C@H](Cc1ccccc1)NC(=O)[C@H](CCC(=O)O)NC(=O)[C@H](C)NC(=O)[C@H](CC(C)C)NC(=O)[C@H](CCCNC(=N)N)NC(=O)[C@H](CCC(N)=O)NC(=O)[C@@H](NC(=O)[C@H](C)NC(=O)[C@@H]1CSSC[C@H](NC(=O)[C@H](CCCCN)NC(=O)CC[C@H](NC(=O)CCCCCCCCCCCCCCCCCCC(=O)O)C(=O)O)C(=O)N[C@@H](CC(N)=O)C(=O)N[C@@H]([C@@H](C)O)C(=O)N[C@@H](C)C(=O)N[C@@H]([C@@H](C)O)C(=O)N1)[C@@H](C)O)C(=O)N[C@@H](CC(C)C)C(=O)N1CCC[C@H]1C(=O)N1CCC[C@H]1C(=O)N[C@H](C(=O)N[C@@H](CC(N)=O)C(=O)N[C@H](C(=O)NCC(=O)N[C@@H](CO)C(=O)N[C@@H](Cc1c[nH]cn1)C(=O)N[C@H](C(=O)N[C@@H](Cc1ccc(O)cc1)C(N)=O)[C@@H](C)O)C(C)C)[C@@H](C)O` [Example 117, N-alpha-[(S)-4-Carboxy-4-(19-carboxynonadecanoylamino)butyryl]-[Glu14,His17,Gln21,His35)-pramlintide] ({C20 diacid-γGlu}-KCNTATCATQRLAEFLHHSSQNFGPILPPTNVGSHTY-NH2; disulfide 2-7 (inferred); C-terminus assumed), the solubility at 18 h [1, 3] is reported as > 200 µM, the solubility at 18 h [1, 4] is reported as > 200 µM and the solubility at 18 h [1, 5] is reported as > 200 µM. For the same compound, the solubility at 18 h ([1]; bistrispropane buffer, pH 7, pH 7.0, Table 8, read-out: Solubility pH 7.0) was > 200 µM, the solubility at 18 h ([1]; bistrispropane buffer, pH 7, pH 7.0, Table 9, read-out: Solubility pH 7.0) was > 200 µM and the solubility at 18 h [1, 6] was > 200 µM. The solubility at 18 h ([1]; bistrispropane buffer, pH 7.5, pH 7.5, Table 9, read-out: Solubility pH 7.5) was > 200 µM, the solubility at 18 h [1, 7] was > 200 µM and the solubility at 18 h [1, 8] was > 200 µM. For the same compound, the solubility at 18 h [1, 9] was > 200 µM, the solubility at 18 h [1, 10] was > 200 µM and the solubility at 18 h [1, 11] was > 200 µM. For the same compound, the solubility at 18 h [1, 12] was > 200 µM, the “ThT pH 4.0 lag time” value ([2]; Table 8) was >45 h and the “ThT pH 4.0 lag time” value ([2]; Table 9) was >45 h. The “ThT pH 4.0 lag time” value ([2]; ThT fibrillation assay) was >45 h and the “ThT pH 4.0 lag time (h)” value ([2]; ThT fibrillation assay) was >45 h.

For `CC[C@H](C)[C@H](NC(=O)[C@@H]1CCCN1C(=O)CNC(=O)[C@H](Cc1ccccc1)NC(=O)[C@H](CC(N)=O)NC(=O)[C@H](CC(N)=O)NC(=O)[C@H](CO)NC(=O)[C@H](CO)NC(=O)[C@H](CCCNC(=N)N)NC(=O)[C@H](Cc1c[nH]cn1)NC(=O)[C@H](CC(C)C)NC(=O)[C@H](Cc1ccccc1)NC(=O)[C@H](CCC(=O)O)NC(=O)[C@H](C)NC(=O)[C@H](CC(C)C)NC(=O)[C@H](CCCNC(=N)N)NC(=O)[C@H](CCC(N)=O)NC(=O)[C@@H](NC(=O)[C@H](C)NC(=O)[C@@H]1CSSC[C@H](NC(=O)[C@H](CCCN)NC(=O)[C@@H](CCCNC(=N)N)NC(=O)[C@@H](CCCNC(=N)N)NC(=O)COCCOCCNC(=O)COCCOCCNC(=O)CC[C@H](NC(=O)CCCCCCCCCCCCCCCCC(=O)O)C(=O)O)C(=O)N[C@@H](CC(N)=O)C(=O)N[C@@H]([C@@H](C)O)C(=O)N[C@@H](C)C(=O)N[C@@H]([C@@H](C)O)C(=O)N1)[C@@H](C)O)C(=O)N[C@@H](CC(C)C)C(=O)N1CCC[C@H]1C(=O)N1CCC[C@H]1C(=O)N[C@H](C(=O)N[C@@H](CC(N)=O)C(=O)N[C@H](C(=O)NCC(=O)N[C@@H](CO)C(=O)N[C@@H](CC(N)=O)C(=O)N[C@H](C(=O)N[C@@H](Cc1ccc(O)cc1)C(N)=O)[C@@H](C)O)C(C)C)[C@@H](C)O` [Example 120, N-alpha-[2-(2-{2-[2-(2-{2-[(S)-4-Carboxy-4-(17-carboxyheptadecanoylamino)butyrylamino]ethoxy}ethoxy)acetylamino]ethoxy}ethoxy)acetyl]-D-Arg-D-Arg-[Orn1,Glu14,His17,Arg18]-pramlintide] ({C18 diacid-γGlu-AEEA-AEEA}-[dR][dR][Orn]CNTATCATQRLAEFLHRSSNNFGPILPPTNVGSNTY-NH2; disulfide 4-9 (inferred); C-terminus assumed), the solubility at 18 h [1, 3] was > 200 µM, the solubility at 18 h [1, 4] was > 200 µM and the solubility at 18 h [1, 5] was > 200 µM. The solubility at 18 h [1, 6] was > 200 µM, the solubility at 18 h [1, 7] was > 200 µM and the solubility at 18 h [1, 8] was 197 µM (≈ 992 µg/mL). For the same compound, the solubility at 18 h [1, 9] was > 200 µM, the solubility at 18 h [1, 10] was > 200 µM and the solubility at 18 h [1, 11] was > 200 µM. For the same compound, the solubility at 18 h [1, 12] was > 200 µM and the “ThT pH 4.0 lag time (h)” value ([2]; ThT fibrillation assay) was 22 h.
